Here are results for one compound from publication PMC11243320, “Tailoring Fibroblast-Activation Protein Targeting for Theranostics: A Comparative Preclinical Evaluation of the ^68Ga- and ^177Lu-Labeled Monomeric and Dimeric Fibroblast-Activation Protein Inhibitors DOTA.SA.FAPi and DOTAGA.(SA.FAPi)2” (Molecules, 2024).

The test system of the experiment is CAFs. In words: Externalization studies in CAFs. The class given is cell-based, human. The following applies: after 24 h at 37 °C. The protocol:
For saturation studies, CAFs were incubated with increasing concentrations of the radiotracers (0.1–10 nM). For internalization studies, approximately 2.5 pmol of the radiotracers were added to CAFs followed by incubation for 15, 30, 60, 90, 120, 180 and 240 min for the ^68Ga-labeled or 30, 60, 120, 240 and 360 min for the ^177Lu-labeled radiotracers at 37 °C, 5% CO2. For the externalization studies, approximately 2.5 pmol of the ^177Lu-labeled radiotracers were added to CAFs followed by incubation for 2 h at 37 °C, 5% CO2. Afterward, the amount of the externalized activity from the CAFs was determined at 0, 10, 20, 30, 60, 120, 240, and 1440 min (Supplemental Data).
Saturation Binding Studies […]
At each time point, the internalization was stopped by putting the plates on ice, removing the me-dium, and washing the cells twice with ice-cold PBS. […] The radioactivity of the culture medium, the receptor bound, and the internal-ized fractions were measured in a γ-counter.
The externalization rate of [177Lu]Lu-DOTA.SA.FAPi and [177Lu]Lu-DOTAGA.(SA.FAPi)2 was studied af-ter CAFs were incubated for 2 h with 2.5 pmol/well of each 177Lu-lebeled radioligand. […] The radioactivity of the culture medium, the receptor bound , the internalized and the externalized fractions were measured in a γ -counter. […]

As for `N#C[C@@H]1CC(F)(F)CN1C(=O)CNC(=O)c1ccnc2ccc(OCCCCNc3c(NCCNC(=O)CN4CCN(CC(=O)[O-])CCN(CC(=O)[O-])CCN(CC(=O)[O-])CC4)c(=O)c3=O)cc12.[177Lu+3]` [[^177Lu]Lu-DOTA.SA.FAPi], the “Total internalized activity released from the CAFs into the medium” value is recorded as “more than 93%” and the “Total internalized activity remaining in the CAFs” value is recorded as 7%.
